In test [1] the target is T1, Tyrosyl-DNA phosphodiesterase 2 (Homo sapiens, UniProt O95551).
T1 sequence (O95551 whole entry): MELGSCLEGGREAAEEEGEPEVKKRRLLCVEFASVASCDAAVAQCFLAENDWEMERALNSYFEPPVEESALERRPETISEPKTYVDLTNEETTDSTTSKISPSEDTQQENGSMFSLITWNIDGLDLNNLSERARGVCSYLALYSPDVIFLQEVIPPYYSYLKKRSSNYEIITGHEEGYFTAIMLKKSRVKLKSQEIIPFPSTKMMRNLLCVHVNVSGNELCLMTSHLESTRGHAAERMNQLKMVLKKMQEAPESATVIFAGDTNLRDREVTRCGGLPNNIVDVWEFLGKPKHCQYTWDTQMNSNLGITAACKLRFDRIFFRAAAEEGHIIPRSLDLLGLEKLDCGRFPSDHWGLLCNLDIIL
Put plainly: human TDP2 enzyme inhibitors, dose response, biochemical, epi absorbance, IC50 (AID 743297).

The next test concerns the target SUMO E1/E2 (Homo sapiens, UniProt P63279+Q9UBE0+Q9UBT2). Kind of test: SAR analysis of SUMOylation using HTRF in an in-Vitro dose response assay. [Related pubchem assays (depositor defined):AID2006, AID2011, AID2018, AID2069, AID2658]. It counts as functional.
A further test addresses SUMO-activating enzyme (Homo sapiens, UniProt Q9UBT2). Kind of test: SUMOylation inhibitor hit validation, confirmation, SUMOylation inhibitor project, biochemical, AlphaScreen (AID 2018). It counts as functional.
In test [2] the target is Voltage-dependent T-type calcium channel subunit alpha-1H (Homo sapiens, UniProt O95180). The test is classed as functional.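 Also: channel activity triggered by adding a high calcium stimulation buffer.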
For test [3], the target named is T2, Tyrosine-protein phosphatase non-receptor type 22 (Homo sapiens, UniProt Q9Y2R2).
T2 sequence (Q9Y2R2 whole entry): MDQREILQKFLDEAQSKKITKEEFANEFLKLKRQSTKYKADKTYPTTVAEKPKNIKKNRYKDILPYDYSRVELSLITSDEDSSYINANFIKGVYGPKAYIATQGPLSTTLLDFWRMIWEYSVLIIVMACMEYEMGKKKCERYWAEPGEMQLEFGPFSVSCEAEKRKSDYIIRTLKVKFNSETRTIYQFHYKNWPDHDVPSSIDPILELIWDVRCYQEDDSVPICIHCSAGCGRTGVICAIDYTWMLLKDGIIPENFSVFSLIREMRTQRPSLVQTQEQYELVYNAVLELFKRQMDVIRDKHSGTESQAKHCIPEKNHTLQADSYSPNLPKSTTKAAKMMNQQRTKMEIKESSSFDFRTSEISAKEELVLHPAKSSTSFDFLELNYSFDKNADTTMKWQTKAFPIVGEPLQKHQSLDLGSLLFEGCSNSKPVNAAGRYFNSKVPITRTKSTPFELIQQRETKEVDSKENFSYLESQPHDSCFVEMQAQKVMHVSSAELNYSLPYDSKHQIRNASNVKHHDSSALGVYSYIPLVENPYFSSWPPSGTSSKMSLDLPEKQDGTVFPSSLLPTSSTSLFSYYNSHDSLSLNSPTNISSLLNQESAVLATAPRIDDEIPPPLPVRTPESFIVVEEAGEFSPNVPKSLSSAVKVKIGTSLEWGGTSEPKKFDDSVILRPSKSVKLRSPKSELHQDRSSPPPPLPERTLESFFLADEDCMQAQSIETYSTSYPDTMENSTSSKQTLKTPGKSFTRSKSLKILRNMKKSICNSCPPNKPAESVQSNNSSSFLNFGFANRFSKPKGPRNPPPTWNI
Kind of test: inhibitors of LYP phosphatase, biochemical, fluorescence intensity, uHTS (AID 1779).

In test [4] the target is T3, Dual specificity protein phosphatase 3 (Homo sapiens, UniProt P51452). Put plainly: VHR phosphatase inhibition, dose response, selectivity assay for STEP inhibitor project, biochemical (AID 602374). The test is classed as functional. Particulars: read-out: IC50_Mean.
Test [5] has as its target 72 kDa type IV collagenase (Homo sapiens, UniProt P08253). Put plainly: Dose Response validation of uHTS RPN11 inhibitor hits using a MMP-2 Fluorescence assay. It counts as functional.
The target of a further test is Prothrombin (Bos taurus, UniProt P00735). Kind of test: thrombin inhibition, dose response, biochemical, fluorescence polarization, uHTS hits (AID 602369). The test is classed as functional.
The target of test [6] is T3, Dual specificity protein phosphatase 3. Put plainly: SAR VHR1 Fluorescent Assay for In Vitro dose response studies Set 2. [Related pubchem assays (depositor defined):AID1654, AID1661, AID1878]. The test is classed as functional.
In test [7] the target is T4, Tyrosine-protein phosphatase non-receptor type 5 (Homo sapiens, UniProt P54829).
T4 sequence (P54829 whole entry): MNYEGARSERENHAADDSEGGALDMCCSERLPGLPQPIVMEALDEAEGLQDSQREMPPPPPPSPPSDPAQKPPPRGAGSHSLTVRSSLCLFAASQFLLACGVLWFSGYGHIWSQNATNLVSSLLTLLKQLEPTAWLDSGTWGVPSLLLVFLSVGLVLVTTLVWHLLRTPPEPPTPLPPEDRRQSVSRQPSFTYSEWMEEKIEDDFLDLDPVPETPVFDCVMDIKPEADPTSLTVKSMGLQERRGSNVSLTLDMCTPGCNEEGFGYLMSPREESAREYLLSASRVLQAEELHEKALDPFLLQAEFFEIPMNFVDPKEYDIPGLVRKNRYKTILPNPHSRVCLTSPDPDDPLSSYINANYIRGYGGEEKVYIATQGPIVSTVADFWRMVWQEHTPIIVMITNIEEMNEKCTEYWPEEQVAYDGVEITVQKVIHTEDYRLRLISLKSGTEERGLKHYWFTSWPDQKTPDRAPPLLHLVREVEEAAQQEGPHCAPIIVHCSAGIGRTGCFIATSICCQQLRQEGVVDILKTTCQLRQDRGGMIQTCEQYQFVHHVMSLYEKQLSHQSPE
Put plainly: STEP phosphatase inhibitors, confirmation, biochemical, fluorescence intensity, uHTS hits (AID 602372). The test is classed as functional. The conditions noted are these: read-out: IC50_Mean.

For test [8], the target named is T2, Tyrosine-protein phosphatase non-receptor type 22. Put plainly: PTPN22 phosphatase inhibition, dose response, selectivity assay for STEP inhibitor project, biochemical (AID 624241). The test is classed as functional.
Test [9] deals with T3, Dual specificity protein phosphatase 3. Kind of test: SAR VHR1 Fluorescent Assay for In Vitro dose response studies. [Related pubchem assays (depositor defined):AID1654, AID1661, AID1878, AID1992, AID2004, AID2070, AID2085]. The test is classed as functional.
Test [10] deals with T2, Tyrosine-protein phosphatase non-receptor type 22. The test is classed as functional.
The next test deals with HEK293. Kind of test: HEK cell cytotoxicity by LDH release, dose response, cytotoxicity control for IDE activator project, fluorescence, HEK cells (AID 588440).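 Also: cytotoxicity by LDH release measuring loss of membrane integrity.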 The test is classed as functional, cell-based. The conditions noted are these: Homo sapiens.

The source made the active and inactive calls.

The text below walks through data of ChEMBL document CHEMBL1201862, “PubChem BioAssay data set” (2004).

T3 sequence (P51452 whole entry): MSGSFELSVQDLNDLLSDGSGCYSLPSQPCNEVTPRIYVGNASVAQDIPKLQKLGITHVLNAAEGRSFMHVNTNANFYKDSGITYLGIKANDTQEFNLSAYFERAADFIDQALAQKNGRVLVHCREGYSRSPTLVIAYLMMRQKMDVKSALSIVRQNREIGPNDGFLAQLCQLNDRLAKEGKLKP
Voltage-dependent T-type calcium channel subunit alpha-1H, sequence (O95180 whole entry): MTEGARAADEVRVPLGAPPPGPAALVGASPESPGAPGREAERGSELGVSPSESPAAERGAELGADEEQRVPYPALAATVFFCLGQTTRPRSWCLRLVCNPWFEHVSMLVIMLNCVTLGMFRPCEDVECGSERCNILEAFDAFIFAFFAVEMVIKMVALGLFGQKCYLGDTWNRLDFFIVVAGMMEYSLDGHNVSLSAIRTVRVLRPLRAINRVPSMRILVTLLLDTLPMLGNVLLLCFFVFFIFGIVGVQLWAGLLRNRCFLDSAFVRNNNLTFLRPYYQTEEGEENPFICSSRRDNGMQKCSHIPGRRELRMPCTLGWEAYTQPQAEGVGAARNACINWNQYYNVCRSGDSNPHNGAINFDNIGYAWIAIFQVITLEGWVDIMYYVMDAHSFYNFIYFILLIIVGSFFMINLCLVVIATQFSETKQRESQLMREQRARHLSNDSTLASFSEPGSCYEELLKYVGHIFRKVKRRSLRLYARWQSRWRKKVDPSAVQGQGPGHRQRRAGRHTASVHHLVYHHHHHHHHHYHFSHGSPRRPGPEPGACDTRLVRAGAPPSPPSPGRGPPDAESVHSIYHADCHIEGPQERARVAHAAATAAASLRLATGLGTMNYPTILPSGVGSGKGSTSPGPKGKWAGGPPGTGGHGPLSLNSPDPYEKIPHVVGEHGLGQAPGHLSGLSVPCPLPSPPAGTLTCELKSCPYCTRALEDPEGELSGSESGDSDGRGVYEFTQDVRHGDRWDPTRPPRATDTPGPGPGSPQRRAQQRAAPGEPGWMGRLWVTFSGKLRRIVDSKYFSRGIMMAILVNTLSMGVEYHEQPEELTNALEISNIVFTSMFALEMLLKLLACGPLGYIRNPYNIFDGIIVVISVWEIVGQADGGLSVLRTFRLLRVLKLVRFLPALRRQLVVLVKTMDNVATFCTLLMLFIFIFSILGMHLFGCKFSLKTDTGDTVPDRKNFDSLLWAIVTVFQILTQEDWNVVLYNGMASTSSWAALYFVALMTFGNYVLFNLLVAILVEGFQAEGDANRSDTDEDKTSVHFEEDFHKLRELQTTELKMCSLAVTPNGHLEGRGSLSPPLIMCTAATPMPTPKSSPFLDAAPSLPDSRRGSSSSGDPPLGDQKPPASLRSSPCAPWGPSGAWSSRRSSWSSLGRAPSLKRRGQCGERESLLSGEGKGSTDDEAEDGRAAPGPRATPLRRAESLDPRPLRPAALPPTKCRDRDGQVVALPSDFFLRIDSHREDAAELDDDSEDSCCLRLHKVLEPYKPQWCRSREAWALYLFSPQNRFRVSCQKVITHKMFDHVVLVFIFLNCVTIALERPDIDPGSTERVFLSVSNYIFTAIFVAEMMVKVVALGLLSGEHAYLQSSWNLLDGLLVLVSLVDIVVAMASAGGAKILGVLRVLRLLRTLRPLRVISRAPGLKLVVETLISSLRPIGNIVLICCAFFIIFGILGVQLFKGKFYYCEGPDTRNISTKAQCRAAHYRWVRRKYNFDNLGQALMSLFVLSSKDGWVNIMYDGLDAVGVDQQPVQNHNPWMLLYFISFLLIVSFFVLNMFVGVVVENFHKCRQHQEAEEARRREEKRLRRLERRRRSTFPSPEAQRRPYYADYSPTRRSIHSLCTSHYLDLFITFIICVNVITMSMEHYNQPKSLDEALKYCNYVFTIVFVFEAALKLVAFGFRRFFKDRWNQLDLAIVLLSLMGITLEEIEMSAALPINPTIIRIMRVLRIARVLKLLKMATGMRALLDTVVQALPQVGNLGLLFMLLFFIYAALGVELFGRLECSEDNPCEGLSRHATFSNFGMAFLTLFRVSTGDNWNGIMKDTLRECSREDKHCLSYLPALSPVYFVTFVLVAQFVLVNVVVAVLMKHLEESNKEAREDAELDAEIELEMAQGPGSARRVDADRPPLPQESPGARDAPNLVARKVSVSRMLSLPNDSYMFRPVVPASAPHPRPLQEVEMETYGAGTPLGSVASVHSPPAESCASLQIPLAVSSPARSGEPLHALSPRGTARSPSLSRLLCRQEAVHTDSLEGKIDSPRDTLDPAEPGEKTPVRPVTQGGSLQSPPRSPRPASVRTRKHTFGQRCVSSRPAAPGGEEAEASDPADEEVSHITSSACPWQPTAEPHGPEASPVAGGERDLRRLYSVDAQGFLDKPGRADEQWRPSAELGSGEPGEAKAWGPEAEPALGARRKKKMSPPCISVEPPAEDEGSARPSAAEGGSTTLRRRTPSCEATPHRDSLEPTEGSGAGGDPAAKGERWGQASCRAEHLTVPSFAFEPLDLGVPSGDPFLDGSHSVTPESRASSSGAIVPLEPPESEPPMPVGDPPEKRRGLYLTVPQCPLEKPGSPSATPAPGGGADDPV
72 kDa type IV collagenase, sequence (P08253 whole entry): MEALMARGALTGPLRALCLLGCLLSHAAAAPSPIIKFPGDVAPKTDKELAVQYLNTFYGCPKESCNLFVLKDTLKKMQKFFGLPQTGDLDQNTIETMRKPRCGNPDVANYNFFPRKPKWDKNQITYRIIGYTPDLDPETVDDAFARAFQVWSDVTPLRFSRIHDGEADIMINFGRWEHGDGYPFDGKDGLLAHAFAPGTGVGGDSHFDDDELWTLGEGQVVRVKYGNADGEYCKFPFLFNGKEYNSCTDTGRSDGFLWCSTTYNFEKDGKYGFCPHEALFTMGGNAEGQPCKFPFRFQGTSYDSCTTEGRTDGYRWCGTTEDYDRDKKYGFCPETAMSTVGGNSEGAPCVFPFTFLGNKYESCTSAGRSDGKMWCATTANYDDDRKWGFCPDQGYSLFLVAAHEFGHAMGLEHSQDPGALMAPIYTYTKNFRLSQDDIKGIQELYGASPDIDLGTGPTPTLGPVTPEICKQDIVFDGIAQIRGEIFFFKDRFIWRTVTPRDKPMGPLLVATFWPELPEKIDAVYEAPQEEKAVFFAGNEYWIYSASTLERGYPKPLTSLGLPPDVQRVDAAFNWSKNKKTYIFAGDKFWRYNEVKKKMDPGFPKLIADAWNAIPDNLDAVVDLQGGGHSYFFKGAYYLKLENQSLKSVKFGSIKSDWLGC
SUMO E1/E2, sequence (Q9UBE0 whole entry): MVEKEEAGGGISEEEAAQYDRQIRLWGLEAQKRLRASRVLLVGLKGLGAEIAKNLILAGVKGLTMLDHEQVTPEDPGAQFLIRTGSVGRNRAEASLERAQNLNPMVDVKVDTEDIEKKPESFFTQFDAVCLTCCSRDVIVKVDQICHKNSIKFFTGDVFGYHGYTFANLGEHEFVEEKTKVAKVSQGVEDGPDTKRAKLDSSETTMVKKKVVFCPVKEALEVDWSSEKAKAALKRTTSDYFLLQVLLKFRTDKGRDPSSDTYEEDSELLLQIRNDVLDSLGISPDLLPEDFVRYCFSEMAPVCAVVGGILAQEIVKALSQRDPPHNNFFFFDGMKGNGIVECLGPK
SUMO E1/E2, sequence (Q9UBT2 whole entry): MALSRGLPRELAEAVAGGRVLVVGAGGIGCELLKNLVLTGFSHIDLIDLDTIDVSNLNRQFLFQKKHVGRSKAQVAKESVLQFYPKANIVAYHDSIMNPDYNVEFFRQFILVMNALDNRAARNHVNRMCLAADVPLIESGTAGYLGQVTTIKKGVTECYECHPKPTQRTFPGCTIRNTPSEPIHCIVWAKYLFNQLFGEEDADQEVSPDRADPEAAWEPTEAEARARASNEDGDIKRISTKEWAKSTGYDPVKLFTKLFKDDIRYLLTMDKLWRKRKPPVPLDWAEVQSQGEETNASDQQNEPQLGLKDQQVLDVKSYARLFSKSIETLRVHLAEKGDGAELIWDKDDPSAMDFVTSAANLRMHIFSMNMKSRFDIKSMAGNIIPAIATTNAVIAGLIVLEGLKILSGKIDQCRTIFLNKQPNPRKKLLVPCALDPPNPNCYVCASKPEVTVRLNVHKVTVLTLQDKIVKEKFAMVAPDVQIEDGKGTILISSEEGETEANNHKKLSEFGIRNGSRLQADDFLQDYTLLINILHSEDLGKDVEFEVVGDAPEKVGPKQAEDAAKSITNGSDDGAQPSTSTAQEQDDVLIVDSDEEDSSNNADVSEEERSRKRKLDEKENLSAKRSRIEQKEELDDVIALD
SUMO E1/E2, sequence (P63279 whole entry): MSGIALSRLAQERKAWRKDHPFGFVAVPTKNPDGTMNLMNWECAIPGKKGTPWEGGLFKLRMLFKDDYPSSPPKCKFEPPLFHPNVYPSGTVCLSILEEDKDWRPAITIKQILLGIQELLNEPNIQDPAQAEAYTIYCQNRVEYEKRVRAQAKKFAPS
SUMO-activating enzyme, sequence (Q9UBE0 whole entry): as the sequence (Q9UBE0 whole entry) above
SUMO-activating enzyme, sequence (Q9UBT2 whole entry): as the sequence (Q9UBT2 whole entry) above

`C=CCn1c(NC(=O)c2ccccc2Cl)c(C#N)c2nc3ccccc3nc21`: the results for the IC50 (in test [1]; at SUMO E1/E2; on SUMO-activating enzyme) were > 128000 nM (inactive), 15700 nM (active) and 860 nM (active), respectively. Besides, in test [2], the 50% effective concentration (EC50) was 4230 nM (active).
With `CCOC(=O)c1sc2nc3c(SCC(=O)O)cc(C(=O)c4ccccc4O)cn3c(=O)c2c1C`, the IC50 was > 99000 nM (inactive) in test [3]; 549 nM (active) in [4]; 821 nM (active) in [5]; 56600 nM (active) on Prothrombin; 218 nM (active) in test [6]; 2180 nM (active) in test [7]. Moreover, the IC50 is 1160 nM (active) in test [8], 382 nM (active) in test [9] and < 1240 nM (active) in test [10].
Regarding `O=c1oc2c(O)cccc2cc1-c1nc2ccccc2[nH]1`, in the test with HEK293, the IC50 was > 89300 nM (inactive).
